Legend:
[1] = test system: heat induced edema in rat paws; experiment: Heat injury to the skin: paw edema after immersion in 58° C. water; type: in vivo; conditions: for ED50 (nmol/kg), inhibition of heat-induced edema / ED50 (μg/kg), inhibition of heat-induced edema: % increase in paw water content 30 minutes after heat injury, as % of saline control
Protocol: Peptides, obtained from Peninsula Laboratories or Bachem Laboratories, were dissolved in sterile saline and injected intravenously 10 minutes before exposure to heat.
After removal of the saline-treated animal's paw from 58° C. water, the paw's skin became red, followed by progressive swelling from an initial volume of about 1.5 ml to a net increase of 0.77 ml within 5 minutes.
To compare the potency of the peptides, the following method was used. Thirty minutes after heat injury, rats were killed with an over-dose of concentrated sodium pentobarbital, and both paws cut off at the ankle joint and weighed. All paws were then dried in an oven at 80° C. for 24 hours and re-weighed to obtain % increase in water content as: [formula]
The rat was euthanized 30 minutes later with concentrated pentobarbital and both paws removed by cutting at the ankle joint and weighed. The paws were then dried at 80° C. for 24 hours. Controls received only saline at 0.1 ml/kg i.v. The increase in the water content of the heated paw was calculated as: heated paw (wet wt.--dry wt.)--unheated paw (wet wt.--dry wt.).

blood pressure = experiment: Blood pressure (mean arterial pressure) after i.v. injection; type: in vivo; conditions: 10 nmol/kg i.v.; FIG. 4
Protocol: Blood pressure was monitored of animals to which 10 nmol/kg of different compounds were administered i.v. One administration was of saline as control. […] Blood pressure was monitored at intervals over a thirty minute period after injection.

[2] = test system: epinephrine-induced pulmonary edema; experiment: Epinephrine-induced pulmonary edema; type: in vivo, rat; conditions: 10 nmol/kg i.v. 10 minutes before epinephrine bitartrate 10 μg/kg i.v.; lungs 30 minutes after Epi; Saline + Epi 6.2 ± 0.3
Protocol: Male Sprague-Dawley rats weighing 260±9 g (Simonsen Labs, Gilroy, Calif.) were used in all experiments. […] This single dose of Epi is sufficient to produce a non-lethal pulmonary edema in the pentobarbital-anesthetized rat. Thirty minutes after Epi, animals were euthanized with concentrated pentobarbital and the lungs were removed. […] Lungs were blotted on paper towels and weighed (wet wt.), then placed in a 80° C. oven for 24 hour and re-weighed again (dry wt.). The value 1000 (wet wt.-dry wt.)/body wt. was termed the edema index. All data are presented as mean ± SEM. Statistical significance was assessed by analysis of variance (ANOVA) with the Studentized range-test.

[3] = test system: vascular leakage from abdominal muscle after celiotomy; experiment: Skeletal muscle injury (celiotomy): Monastral blue vascular leakage; type: in vivo, rat; conditions: for Lesion Size (x104): area x intensity; for Area (mm^2) of dye staining: samples 30 minutes after celiotomy
Protocol: (§1) Experiments were conducted on 260±6 (S.D.) male Sprague-Dawley rats from Simonsen Laboratories (Gilroy, Calif.). Animals were injected with sodium pentobarbital, 60 mg/kg i.p. Ten to 15 minutes later, after anesthesia was signaled by loss of the righting reflex and motor responses to tail pinch, Monastral blue B (used to estimate leakage of macromolecules from blood vessels), suspended in saline at 30 mg/ml (Sigma Co., St. Louis, Mo.), was injected 60 mg/kg i.v. at a rate of approximately 0.2 ml/100 g body weight/min into a branch of the femoral vein. Procedures for inducing vascular leakage began three minutes after Monastral blue infusion.
The abdomen was shaved and a 4 cm scalpel cut was made in the midline. After manually parting the skin, an incision of equal length was made in the rectus abdominus and the skin was then pushed together to cover the wound. Thirty minutes after celiotomy, the rat was euthanized with an i.v. overdose of pentobarbital and the skin and muscle surrounding the site of incision were removed and fixed in 10% neutral-buffered formalin (NBF) for at least 2 days before further analysis.
To measure the area of dye distribution and the intensity of dye staining on the surfaces of the tissues, we used an image-processing system (JAVA, Jandel Video Analysis System, Corte Madera, Calif.) in which a video image, composed of pixels with different gray intensities, was subjected to numeric analysis. Samples of the abdominal muscle and brain were placed on a non-reflective coated glass board illuminated by six 60 watt fluorescent bulbs placed 1.65 m above the tissues and the images recorded under these constant conditions, without magnification, on video film. The areas of dye distribution were demarcated with a mouse-pointer device and the average intensity in the defined areas was obtained. To calibrate light intensity on the JAVA system, various concentrations of Monastral blue B (0.0625 to 16 mg/ml) were placed on white filter paper and the intensity scale set from 0 to 255 units. The relationship of light intensity, which is the degree of blueness in arbitrary units, to Monastral blue B concentrations (mg/ml) was: light intensity =124+116 log MB, an equation obtained by linear regression with a correlation coefficient of r= 0.98. The term "lesion size", applied to the area of staining multiplied by its light intensity, represents a two-dimensional measurement of vascular leakage. This assessment was considered adequate because the injuries were to the surfaces of the muscle and cortex and the lesions were not more than a few mm deep. To further characterize the sites of dye leakage from blood vessels, samples of muscle and cortex, cut to approximately 500 μm thickness, were mounted in glycerol gelatin for microscopic examination.
Animals were randomly assigned to treatments using a paired control design with a minimum of 6 rats per group. Data were expressed as the mean ± S.E.M. and the ED50 and 95% confidence limits were estimated by the method of Litchfield and Wilcoxon (1949). The Student's test was used for comparison of groups.

[4] = test system: vascular leakage from brain cortex after freeze injury; experiment: Cerebral cortex freeze injury: Monastral blue vascular leakage; type: in vivo, rat; conditions: 4 nmol/kg i.v. 10 minutes before freeze injury
Protocol: as §1
This model of vasogenic edema in brain tissues was first described by Chan et al. (1983). Anesthetized rats were mounted on a David Kopf stereotaxic instrument and a 2 to 2.5 cm midline incision made in the shaved scalp. After parting the skin and connective tissue to expose the skull, a 60 mm^2 plate, connected to a brass cup filled with dry ice and acetone and maintained at -50° C., was applied to the skull for four minutes. One hour later, the animal was perfused through the aorta with saline, followed by 10% NBF, and then the brain was removed and stored in 10% NBF for at least two days before further analysis. Sections of membranes covering the cortex were also dissected from the underlying tissues and separately examined.
To measure the area of dye distribution and the intensity of dye staining on the surfaces of the tissues, we used an image-processing system (JAVA, Jandel Video Analysis System, Corte Madera, Calif.) in which a video image, composed of pixels with different gray intensities, was subjected to numeric analysis. Samples of the abdominal muscle and brain were placed on a non-reflective coated glass board illuminated by six 60 watt fluorescent bulbs placed 1.65 m above the tissues and the images recorded under these constant conditions, without magnification, on video film. The areas of dye distribution were demarcated with a mouse-pointer device and the average intensity in the defined areas was obtained. […]

substance P = experiment: Salivary secretion induced by substance P injections; type: in vivo; conditions: substance P 40 μg/kg s.c., rat
Source text: Thus, a chemical (Such as illustrated by CP-96,345) that antagonizes the inflammatory mediator, substance P, is not sufficient to prevent edema after thermal injury.

Question: What does the source list for xenopsin?
Answer: ED50 (nmol/kg), inhibition of heat-induced edema ([1]; i.v. 10 minutes before heat): 0.9 nmol/kg; ED50 (μg/kg), inhibition of heat-induced edema ([1]; i.v. 10 minutes before heat): 0.88 µg/kg

Question: With neurotensin (8-13) [NT (8-13)] as the compound, how does the “hypotensive effect (blood pressure over 30 minutes)” value (blood pressure) read?
Answer: Its value is “lacked hypotensive effect”.

Question: What about the “Edema Index, 1000 (wet wt.-dry wt.)/body wt.” value [2] of the same compound?
Answer: Its value is 4.7 ± 0.2.

Question: What about the “swelling response (paw volume change)” value ([1]; FIG. 1, different doses before 58° C. water, paw volume up to 30 minutes) of the same compound?
Answer: Its value is “dose-dependent suppression”.

Question: What about the “ED50 (nmol/kg), inhibition of heat-induced edema” value (“ED50 (nmol/kg), inhibition” for short) ([1]; i.v. 10 minutes before heat) of the same compound?
Answer: Its value is 1.9 nmol/kg.

Question: And the “ED50 (μg/kg), inhibition of heat-induced edema” value (shortened to “ED50 (μg/kg), inhibition”) ([1]; i.v. 10 minutes before heat)?
Answer: Its value is 1.6 µg/kg.

Question: For N-acetyl-neurotensin (8-13) [AcNT8-13], which “hypotensive effect (blood pressure over 30 minutes)” value (blood pressure) is on record?
Answer: The value was “lacked hypotensive effect”.

Question: And the “Lesion Size (x104)” value ([3]; 4 nmol/kg i.v. 5 minutes after celiotomy, saline 10.4 ± 0.5)?
Answer: Its value is 5.3 ± 0.4 x104.

Question: And the “Intensity of dye staining” value ([3]; 4 nmol/kg i.v. 5 minutes after celiotomy, saline 137 ± 31)?
Answer: The value was 108 ± 5.

Question: And the “Area (mm^2) of dye staining” value ([3]; 4 nmol/kg i.v. 5 minutes after celiotomy, saline 758 ± 39)?
Answer: The value was 493 ± 27 mm^2.

Question: What about the “Lesion Size (x104)” value ([3]; 4 nmol/kg i.v. 10 minutes before celiotomy, saline 12.7 ± 0.4) of the same compound?
Answer: The value was 5.0 ± 0.2 x104.

Question: And the “Intensity of dye staining” value ([3]; 4 nmol/kg i.v. 10 minutes before celiotomy, saline 149 ± 2)?
Answer: Its value is 126 ± 2.

Question: What about the “Area (mm^2) of dye staining” value ([3]; 4 nmol/kg i.v. 10 minutes before celiotomy, saline 852 ± 27) of the same compound?
Answer: Its value is 399 ± 18 mm^2.

Question: What about the “Edema Index, 1000 (wet wt.-dry wt.)/body wt.” value [2] of the same compound?
Answer: Its value is 4.9 ± 0.2.

Question: And the “Lesion Size (x103)” value ([4]; area x intensity, saline 5.7 ± 0.2)?
Answer: The value was 2.4 ± 0.3 x103.

Question: What about the “Area (mm^2) of dye staining” value ([4]; brain removed sixty minutes later, saline 38 ± 2) of the same compound?
Answer: Its value is 21 ± 2 mm^2.

Question: What about the “Intensity of dye staining” value ([4]; saline 151 ± 4) of the same compound?
Answer: Its value is 119 ± 4.

Question: And the “ED50 (nmol/kg), inhibition” value ([1]; i.v. 10 minutes before heat)?
Answer: Its value is 2.1 nmol/kg.

Question: And the “ED50 (μg/kg), inhibition” value ([1]; i.v. 10 minutes before heat)?
Answer: The value was 1.8 µg/kg.

Question: With LANT-6 as the compound, how does the “swelling after heat injury” value ([1]; 0.5 mg/kg i.v., control 69±2%, N=6 pairs, P<0.001) read?
Answer: Its value is 2±1%.

Question: Which “ED20, inhibition of heat-induced edema” value ([1]; i.v. 10 minutes before heat, dose range 200-800 nmol/kg) does the source give for Kinetensin here?
Answer: The value was 420 nmol/kg.

Question: Which “Increase in Water Content of Heated Paw” value ([1]; 4 mg/kg i.v. 10 minutes before 58° C. water for one minute, 30 minutes later, saline 1117 ± 33, not significantly different) does the source give for `COc1ccccc1CN[C@H]1C2CCN(CC2)[C@H]1C(c1ccccc1)c1ccccc1` [CP-96,345, reference compound] here?
Answer: The value was 1057 ± 24 mg.

Question: And the “salivary secretion induced by substance P” value (substance P)?
Answer: Its value is “prevent salivary secretion”.

Question: Which “ED50 (nmol/kg), inhibition” value ([1]; i.v. 10 minutes before heat) does the source give for “neuromedin N (IPYIL; Neuromedin N; UniProt P30990 144-148, looked up) [peptide of the neurotensin family]” here?
Answer: The value was 10.0 nmol/kg.

Question: And the “ED50 (μg/kg), inhibition” value ([1]; i.v. 10 minutes before heat)?
Answer: The value was 7.5 µg/kg.
